# Results as given in EP0643053A1, “Process for the manufacture of phenoxyphenoxyalkyl derivatives” (CIBA-GEIGY AG, priority 1993, dated 1995).
# Assays:
# Type in all cases: in vivo
# [1] = tested on: Aonidiella aurantii crawlers; test: Activity against Aonidiella aurantii on potato tubers (immersion); conditions: 400 ppm of active ingredient; potato tubers immersed in aqueous emulsion or suspension spray mixture; after 10 to 12 weeks; isomer ratios A, B and C used
# Excerpt: (§1) The active ingredient is used, in each case, in three different isomer ratios A, B and C: A = 37.8 % of 2R,4S-isomer IIIa, 37.8% of 2S,4R-isomer IIIb, 12.2% of 2R,4R-isomer IIIc and 12.2% of 2S,4S-isomer IIId; B = 40.2% of 2R,4S-isomer IIIa, 40.2% of 2S,4R-isomer IIIb, 9.8% of 2R,4R-isomer IIIc and 9.8% of 2S,4S-isomer IIId; and C = 36.7% of 2R,4S-isomer IIIa, 36.7% of 2S,4R-isomer IIIb, 13.3% of 2R,4R-isomer IIIc and 13.3% of 2S,4S-isomer IIId. Example B2: Activity against Aonidiella aurantii Potato tubers are populated with Aonidiella aurantii crawlers. After about 2 weeks, the potatoes are immersed into an aqueous emulsion spray mixture or suspension spray mixture which comprises 400 ppm of active ingredient. After the tubers have dried, they are incubated in a plastic container. To evaluate the experiment after 10 to 12 weeks, the survival rate of the crawlers of the first subsequent generation of the treated population is compared with that of untreated control batches. In this test, the compound of the formula III has an activity of over 80%.
# Nilaparvata lugens [2] = test: Activity against Nilaparvata lugens (systemic), rice plants in pots; conditions: 144 h, 10 ppm of active ingredient in aqueous emulsion solution, larvae in the 2nd and 3rd stages, after 6 days, isomer ratios A, B and C used, read-out: percentage reduction in population (% activity)
# Excerpt: The active ingredient is used, in each case, in three different isomer ratios A, B and C: A = 37.8 % of 2R,4S-isomer IIIa, 37.8% of 2S,4R-isomer IIIb, 12.2% of 2R,4R-isomer IIIc and 12.2% of 2S,4S-isomer IIId; B = 40.2% of 2R,4S-isomer IIIa, 40.2% of 2S,4R-isomer IIIb, 9.8% of 2R,4R-isomer IIIc and 9.8% of 2S,4S-isomer IIId; and C = 36.7% of 2R,4S-isomer IIIa, 36.7% of 2S,4R-isomer IIIb, 13.3% of 2R,4R-isomer IIIc and 13.3% of 2S,4S-isomer IIId. Example B6: Activity against Nilaparvata lugens (systemic) Pots containing rice plants are placed into an aqueous emulsion solution comprising 10 ppm of active ingredient. The plants are subsequently populated with larvae in the 2nd and 3rd stages. The test is evaluated after 6 days. The percentage reduction in population (% activity) is determined by comparing the number of plant hoppers on the treated and untreated plants. In this test, the compound of the formula III has an activity of over 80%.
# Cydia pomonella eggs = test: Activity against Cydia pomonella (ovicidal), egg immersion test; conditions: 144 h, 400 ppm of active ingredient in acetone/water, eggs on filter paper immersed, after 6 days, vs untreated control, isomer ratios A, B and C used, read-out: activity (% reduction in hatching rate)
# Excerpt: (§2) The active ingredient is used, in each case, in three different isomer ratios A, B and C: A = 37.8 % of 2R,4S-isomer IIIa, 37.8% of 2S,4R-isomer IIIb, 12.2% of 2R,4R-isomer IIIc and 12.2% of 2S,4S-isomer IIId; B = 40.2% of 2R,4S-isomer IIIa, 40.2% of 2S,4R-isomer IIIb, 9.8% of 2R,4R-isomer IIIc and 9.8% of 2S,4S-isomer IIId; and C = 36.7% of 2R,4S-isomer IIIa, 36.7% of 2S,4R-isomer IIIb, 13.3% of 2R,4R-isomer IIIc and 13.3% of 2S,4S-isomer IIId. Example B4: Activity against Cydia pomonella (ovicidal) Cydia pomonella eggs which have been deposited on filter paper are briefly immersed into a test solution of 400 ppm of active ingredient in acetone/water. After the test solution has dried on, the eggs are incubated in Petri dishes. After 6 days, the percentage hatching rate of the eggs is evaluated by comparison with untreated control batches (% reduction in hatching rate). In this test, the compound of the formula III has an activity of over 80%.
# [3] = tested on: Adoxophyes reticulana eggs; test: Activity against Adoxophyes reticulana (ovicidal), egg immersion test; conditions: 144 h; 400 ppm of active ingredient in acetone/water; eggs on filter paper immersed; after 6 days; vs untreated control; isomer ratios A, B and C used; read-out: activity (% reduction in hatching rate)
# Excerpt: as §2, with “B1:” for “B4:”, “Adoxophyes reticulana” for “Cydia pomonella”
# Nilaparvata lugens [4] = test: Activity against Nilaparvata lugens on sprayed rice plants; conditions: 504 h, 400 ppm of active ingredient, larvae in the 2nd and 3rd stages, after 21 days, isomer ratios A, B and C used, read-out: percentage reduction in population (% activity)
# Excerpt: The active ingredient is used, in each case, in three different isomer ratios A, B and C: A = 37.8 % of 2R,4S-isomer IIIa, 37.8% of 2S,4R-isomer IIIb, 12.2% of 2R,4R-isomer IIIc and 12.2% of 2S,4S-isomer IIId; B = 40.2% of 2R,4S-isomer IIIa, 40.2% of 2S,4R-isomer IIIb, 9.8% of 2R,4R-isomer IIIc and 9.8% of 2S,4S-isomer IIId; and C = 36.7% of 2R,4S-isomer IIIa, 36.7% of 2S,4R-isomer IIIb, 13.3% of 2R,4R-isomer IIIc and 13.3% of 2S,4S-isomer IIId. Example B5: Activity against Nilaparvata lugens Rice plants are sprayed with an aqueous emulsion spray mixture comprising 400 ppm of active ingredient. After the spray coating has dried on, the plants are populated with plant hopper larvae in the 2nd and 3rd stages. The test is evaluated after 21 days. The percentage reduction in population (% activity) is determined by comparing the number of surviving plant hoppers on the treated and untreated plants. In this test, the compound of the formula III has an activity of over 80%.
# [5] = tested on: Aonidiella aurantii crawlers; test: Activity against Aonidiella aurantii on Citrus trifoliata cuttings (spray); conditions: 50 ppm of active ingredient; Citrus trifoliata cuttings sprayed to drip point; after 10 to 12 weeks; isomer ratios A, B and C used
# Excerpt: as §1, with “B3:” for “B2:”, “Citrus trifoliata cuttings” for “Potato tubers”, “cuttings” for “potatoes”, “sprayed to drip point with” for “immersed into”, “comprising 50” for “or suspension spray mixture which comprises 400”, “ingredient.” for “ingredient. After the tubers have dried, they are incubated in a plastic container.”
compound,measurement,setting,value
"CCC1OCC(COc2ccc(Oc3ccccc3)cc2)O1 (racemic) [compound of the formula III, 2-ethyl-4-(4-phenoxyphenoxymethyl)-1,3-dioxolane]",activity (survival rate of the crawlers of the first subsequent generation compared with untreated control),[1],over 80%
same,activity at 10 ppm,Nilaparvata lugens [2],> 80%
same,activity at 400 ppm,Cydia pomonella eggs,> 80%
same,activity at 400 ppm,[3],> 80%
same,activity at 400 ppm,Nilaparvata lugens [4],> 80%
same,activity (survival rate of the crawlers of the first subsequent generation compared with untreated control),[5],over 80%
